Measurements from article PMC11066877, “Development and Characterization of Novel FAP-Targeted Theranostic Pairs: A Bench-to-Bedside Study” (Research, 2023).

Key:
[1] = biological target: T1, recombinant human FAP protein (Homo sapiens, UniProt Q12884); assay: SPR binding to immobilized recombinant human FAP protein
T1 construct: purchased ACRO Biosystems FAP-H5244
T1 sequence (Q12884 1-760): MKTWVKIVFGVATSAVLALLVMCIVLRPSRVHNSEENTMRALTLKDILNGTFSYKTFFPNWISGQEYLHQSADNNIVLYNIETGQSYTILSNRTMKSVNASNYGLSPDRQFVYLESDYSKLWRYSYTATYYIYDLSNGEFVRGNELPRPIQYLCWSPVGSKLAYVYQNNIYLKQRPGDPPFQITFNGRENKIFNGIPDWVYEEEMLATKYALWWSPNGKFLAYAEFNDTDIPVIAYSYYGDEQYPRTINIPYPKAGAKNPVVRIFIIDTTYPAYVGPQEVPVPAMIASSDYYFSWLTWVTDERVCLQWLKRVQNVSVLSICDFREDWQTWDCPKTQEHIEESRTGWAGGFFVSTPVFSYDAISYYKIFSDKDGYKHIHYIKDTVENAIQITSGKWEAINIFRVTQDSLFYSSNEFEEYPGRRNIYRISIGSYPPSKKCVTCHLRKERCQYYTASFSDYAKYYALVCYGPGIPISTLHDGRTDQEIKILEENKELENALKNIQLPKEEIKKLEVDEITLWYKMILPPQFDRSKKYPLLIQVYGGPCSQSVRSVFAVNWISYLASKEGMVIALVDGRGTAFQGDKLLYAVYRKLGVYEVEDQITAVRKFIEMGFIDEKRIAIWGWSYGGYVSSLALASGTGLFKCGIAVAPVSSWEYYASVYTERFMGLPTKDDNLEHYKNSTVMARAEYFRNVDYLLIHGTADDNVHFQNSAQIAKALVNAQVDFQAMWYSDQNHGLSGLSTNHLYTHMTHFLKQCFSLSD
Protocol: (§1) The Biacore SPR interaction study was conducted to determine the binding kinetics between the peptides and the immobilized human FAP protein (FAP-H5244, ACRO Biosystems) or murine FAP protein (FAP-M52H3, ACRO Biosystems) as target antigens. The final binding affinity, represented by the equilibrium dissociation degree (M) or KD, was calculated by examining the relationship between the binding rate constant (ka) (M^−1 s^−1) and the dissociation rate (kd) (s^−1).

[2] = biological target: T2, recombinant murine FAP protein (Mus musculus, UniProt P97321); assay: SPR binding to immobilized recombinant murine FAP protein
T2 construct: purchased ACRO Biosystems FAP-M52H3
T2 sequence (P97321 1-761): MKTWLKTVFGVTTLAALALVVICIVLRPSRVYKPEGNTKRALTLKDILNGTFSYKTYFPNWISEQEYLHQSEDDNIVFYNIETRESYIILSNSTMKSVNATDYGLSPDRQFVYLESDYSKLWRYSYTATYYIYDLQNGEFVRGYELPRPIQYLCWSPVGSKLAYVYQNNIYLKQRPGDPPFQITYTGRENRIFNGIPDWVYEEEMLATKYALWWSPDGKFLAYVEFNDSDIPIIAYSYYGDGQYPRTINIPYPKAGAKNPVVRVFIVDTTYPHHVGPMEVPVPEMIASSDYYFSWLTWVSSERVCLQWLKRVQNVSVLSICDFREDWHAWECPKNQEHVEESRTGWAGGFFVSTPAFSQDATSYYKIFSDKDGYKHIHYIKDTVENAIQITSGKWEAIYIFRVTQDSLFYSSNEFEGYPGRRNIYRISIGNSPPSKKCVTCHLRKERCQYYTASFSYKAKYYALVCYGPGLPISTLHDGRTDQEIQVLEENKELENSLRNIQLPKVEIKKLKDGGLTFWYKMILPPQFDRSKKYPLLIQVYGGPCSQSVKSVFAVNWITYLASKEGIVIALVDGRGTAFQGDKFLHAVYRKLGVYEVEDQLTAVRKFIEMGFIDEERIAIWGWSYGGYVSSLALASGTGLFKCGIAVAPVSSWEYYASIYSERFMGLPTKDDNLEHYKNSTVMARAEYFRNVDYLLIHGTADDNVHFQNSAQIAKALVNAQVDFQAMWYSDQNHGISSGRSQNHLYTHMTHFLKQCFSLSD
Protocol: as §1

[3] = Ex vivo biodistribution after imaging, HT1080-FAP tumor models; type: in vivo, mice; settings: nude (thymus-free), mouse, intravenous, 3 MBq, total radioactivity; HT1080-FAP tumor, 4.5 h p.i.
Protocol: (§2) A human pancreatic cancer cell line BxPC-3 and a murine pancreatic cancer cell Panc-02 were obtained from the American Type Culture Collection. The pancreatic cancer cell line T3M-4 was purchased by MeisenCTCC (Zhejiang, China). BxPC-3 and T3M-4 cell lines were grown in RPMI 1640 medium (Shanghai BasalMedia Technologies Co., LTD.) containing 10% FBS (GE Healthcare, Chicago, IL, USA) and 1% penicillin–streptomycin solution (Invitrogen). To culture the Panc-02 cell line, a medium called Dulbecco’s modified Eagle medium from Shanghai BasalMedia Technologies Co., LTD. was used, which consisted of 10% FBS. The cell line HT-1080 was grown in MEM medium (Shanghai BasalMedia Technologies Co., LTD.) supplemented with 10% FBS, 1% penicillin-streptomycin solution, and 1% nonessential amino acids (NEAA-11140050; Gibco). A human fibrosarcoma cell line was stably transfected with FAP (HT1080-FAP) and cultured, as we previously described. All cell lines were cultured in a humid incubator with 5% CO2 at a temperature of 37 °C. Approval was granted by the Institutional Animal Care and Use Committee (Renji Hospital, School of Medicine, Shanghai Jiao Tong University) for all experimental protocols and procedures related to animal care. Panc-02 cells were implanted by subcutaneous injection of 5 × 10^6 tumor cells suspended in 100 μl PBS and matrigel matrix (Corning) with equal volume into the upper limb flank of C57BL/6 mice (Shanghai Sheng Chang Biotechnology Co., Ltd.). Four- to 6-week-old thymus-free nude mice (GemPharmatech) were subcutaneously inoculated with BxPC-3, T3M-4, HT-1080, and HT1080-FAP cells (5 × 10^6 in 100 μl of PBS mixing with 100 μl matrigel matrix) in the right shoulder. Follow-up microPET/CT imaging and ex vivo biodistribution experiments were performed when the tumor diameter reached 8 to 9 mm.
After imaging collection and image reconstruction, samples from euthanized experimental mice, including blood and multiple significant organs, were harvested and weighed. The radioactivity in each collected tissue was counted using an automated gamma counter (Wizard 2480, PerkinElmer) and the accumulation of radioactivity in different tissues and organs was quantified and expressed as %ID/g (mean ± SD). [^177Lu]Lu-DOTA-FD1 (~1.11 MBq, n = 3), [^177Lu]Lu-DOTA-FD2 (~1.11 MBq, n = 3), and [^177Lu]Lu-DOTA-FD3 (~1.11 MBq, n = 3) were injected into the tail vein of free nude mice at 6 h, 24 h, and 24 h for ex vivo biodistribution to verify the circulation time of the 3 probes in vivo. Biodistribution data from tumor-bearing mice injected with [^177Lu]Lu-DOTA-FD3 at 45 h (~1.11 MBq, n = 4) and 90 h (~1.11 MBq, n = 3) validated the prolonged enrichment of the probe at the tumor site. At the end of each probe imaging and radioactivity counting study, tumor tissues were fixed in paraformaldehyde tissue fixative. Briefly, sections of 10 μm were cut and stained for H&E following the standard protocols. IHC staining with a FAP antibody (ab227703, Abcam) was performed only on tumor tissues following accepted techniques.

[4] = microPET/CT imaging, ROI analysis, HT-1080 tumor models; type: in vivo, mice; settings: nude (thymus-free), mouse, intravenous, 3 MBq, 4 h p.i.
Protocol: as §2, with “Follow-up microPET/CT imaging and ex vivo biodistribution experiments were performed when the tumor diameter reached 8 to 9 mm.” left out
(§3) MicroPET imaging was performed on isoflurane-anesthetized mice injected intravenously via the lateral tail vein with around 3 MBq (2.5 nmol) of the radioligand at certain times. […] The information was analyzed using OsiriX Lite software (Pixmeo SARL) and Inveon Research Workplace (Siemens Preclinical Solutions). […]

[5] = microPET/CT imaging, ROI analysis, BxPC-3 tumor models; type: in vivo, mice; settings: nude (thymus-free), mouse, intravenous, 3 MBq, 4 h p.i.
Protocol: as §2, with “Follow-up microPET/CT imaging and ex vivo biodistribution experiments were performed when the tumor diameter reached 8 to 9 mm.” left out
as §3

[6] = Ex vivo biodistribution after imaging, HT-1080 tumor models; type: in vivo, mice; settings: nude (thymus-free), mouse, intravenous, 3 MBq, total radioactivity, 4.5 h p.i.
Protocol: A human pancreatic cancer cell line BxPC-3 and a murine pancreatic cancer cell Panc-02 were obtained from the American Type Culture Collection. The pancreatic cancer cell line T3M-4 was purchased by MeisenCTCC (Zhejiang, China). BxPC-3 and T3M-4 cell lines were grown in RPMI 1640 medium (Shanghai BasalMedia Technologies Co., LTD.) containing 10% FBS (GE Healthcare, Chicago, IL, USA) and 1% penicillin–streptomycin solution (Invitrogen). To culture the Panc-02 cell line, a medium called Dulbecco’s modified Eagle medium from Shanghai BasalMedia Technologies Co., LTD. was used, which consisted of 10% FBS. The cell line HT-1080 was grown in MEM medium (Shanghai BasalMedia Technologies Co., LTD.) supplemented with 10% FBS, 1% penicillin-streptomycin solution, and 1% nonessential amino acids (NEAA-11140050; Gibco). […]
After imaging collection and image reconstruction, samples from euthanized experimental mice, including blood and multiple significant organs, were harvested and weighed. The radioactivity in each collected tissue was counted using an automated gamma counter (Wizard 2480, PerkinElmer) and the accumulation of radioactivity in different tissues and organs was quantified and expressed as %ID/g (mean ± SD). […] At the end of each probe imaging and radioactivity counting study, tumor tissues were fixed in paraformaldehyde tissue fixative. […]

[7] = microPET/CT imaging, ROI analysis, HT1080-FAP tumor models; type: in vivo, mice; settings: nude (thymus-free), mouse, intravenous, 3 MBq, HT1080-FAP tumor
Protocol: as §2
MicroPET imaging was performed on isoflurane-anesthetized mice injected intravenously via the lateral tail vein with around 3 MBq (2.5 nmol) of the radioligand at certain times. Regarding the FD1 blocking group, an excessive amount of unlabeled FD1 (200-fold) was simultaneously injected with [^68Ga]Ga-DOTA-FD1 into the tail vein of another batch of mice. Images were acquired using an IRIS PET/CT system (Inviscan Imaging Systems). PET data were reconstructed using a nonscatter-corrected 3D-ordered subset expectation […]/maximum a posteriori (OSEM3D/MAP) algorithm. The information was analyzed using OsiriX Lite software (Pixmeo SARL) and Inveon Research Workplace (Siemens Preclinical Solutions). The percentage of injected dose per gram of tissue (%ID/g, mean ± SD) was utilized to present the distribution of tracers in the ROI, encompassing tumor, heart, lung, liver, kidney, and muscle.

[8] = microPET/CT imaging, ROI analysis, Panc-02 tumor models; type: in vivo, mice; settings: C57BL/6, mouse, intravenous, 3 MBq, 4 h p.i.
Protocol: as §2, with “Follow-up microPET/CT imaging and ex vivo biodistribution experiments were performed when the tumor diameter reached 8 to 9 mm.” left out
as §3

Row | Kd [1] | Kd [2] | tissue uptake at 4.5 h [3] | tissue uptake at 4 h [4] | tissue uptake at 4 h [5] | tissue uptake at 4.5 h [6] | tissue uptake at 0.5 h ([7]; 30 min) | tissue uptake at 2 h ([7]; 2 h) | tissue uptake at 4 h ([7]; 4 h) | tissue uptake at 4 h [8] | SMILES
1 | 3.3 nM | 10.2 nM | – | – | – | – | – | – | – | – | CCCCCC(=O)N[C@H]1CSCc2cc(CSCCNC(=O)[C@H](CCCCN)NC(=O)[C@@H](NC(=O)[C@H](CCSC)NC(=O)CN3CCN(CC(=O)O)CCN(CC(=O)O)CCN(CC(=O)O)CC3)C(C)C)cc(c2)CSC[C@@H](C(=O)O)NC(=O)[C@H](Cc2ccccc2)NC(=O)[C@H](CCC(N)=O)NC(=O)[C@H]([C@@H](C)O)NC(=O)[C@@H]2CCCN2C(=O)[C@@H]2CCCN2C1=O [FD1]
2 | 6.25 nM | 13.7 nM | – | – | – | – | – | – | – | – | CCCCCC(=O)N[C@H]1CSCc2cc(CSCCNC(=O)[C@H](CCCCNC(=O)CCCc3ccc(I)cc3)NC(=O)[C@@H](NC(=O)[C@H](CCSC)NC(=O)CN3CCN(CC(=O)O)CCN(CC(=O)O)CCN(CC(=O)O)CC3)C(C)C)cc(c2)CSC[C@@H](C(=O)O)NC(=O)[C@H](Cc2ccccc2)NC(=O)[C@H](CCC(N)=O)NC(=O)[C@H]([C@@H](C)O)NC(=O)[C@@H]2CCCN2C(=O)[C@@H]2CCCN2C1=O [FD3]
3 | – | – | 11.9 ± 1.83 %ID/g | 8.1 ± 0.52 %ID/g | 7.67 ± 0.38 %ID/g | 10.4 ± 1.84 %ID/g | 6.63 ± 0.64 %ID/g | 8.23 ± 2.61 %ID/g | 9.37 ± 0.61 %ID/g | 6.9 ± 0.51 %ID/g | CCCCCC(=O)N[C@H]1CSCc2cc(CSCCNC(=O)[C@H](CCCCNC(=O)CCCc3ccc(I)cc3)NC(=O)CN3CCN(CC(=O)O)CCN(CC(=O)O)CCN(CC(=O)O)CC3)cc(c2)CSC[C@@H](C(=O)O)NC(=O)[C@H](Cc2ccccc2)NC(=O)[C@H](CCC(N)=O)NC(=O)[C@H]([C@@H](C)O)NC(=O)[C@@H]2CCCN2C(=O)[C@@H]2CCCN2C1=O [[^68Ga]Ga-DOTA-FD2, metal not drawn]
4 | 2.06 nM | 11.6 nM | – | – | – | – | – | – | – | – | CCCCCC(=O)N[C@H]1CSCc2cc(CSCCNC(=O)[C@H](CCCCNC(=O)CCCc3ccc(I)cc3)NC(=O)CN3CCN(CC(=O)O)CCN(CC(=O)O)CCN(CC(=O)O)CC3)cc(c2)CSC[C@@H](C(=O)O)NC(=O)[C@H](Cc2ccccc2)NC(=O)[C@H](CCC(N)=O)NC(=O)[C@H]([C@@H](C)O)NC(=O)[C@@H]2CCCN2C(=O)[C@@H]2CCCN2C1=O [FD2]
